Reference: ChEMBL document CHEMBL4251578, “Design, synthesis and biological evaluation of novel 2-aminobenzamides containing dithiocarbamate moiety as histone deacetylase inhibitors and potent antitumor agents” (Eur J Med Chem, 2018)
Values belong to the compound of their own block, whether it stands above or below them. Calls of active or inactive are those of the source. The rule behind the calls is not given here.

Key:
[1] = test system: SMMC-7721; assay: Antiproliferative activity against human SMMC7721 cells after 72 hrs by CCK-8 assay; type: functional, cell-based; conditions: SMMC-7721, 72 h
[2] = test system: HCT-116; assay: Antiproliferative activity against human HCT116 cells after 72 hrs by CCK-8 assay; type: functional, cell-based; conditions: HCT-116, 72 h
[3] = test system: HeLa; assay: Antiproliferative activity against human HeLa cells at 2 uM after 72 hrs by CCK-8 assay relative to control; type: functional
[4] = test system: NCI-H1299; assay: Antiproliferative activity against human NCI-H1299 cells after 72 hrs by CCK-8 assay; type: functional, cell-based; conditions: NCI-H1299, 72 h
[5] = test system: MGC-803; assay: Antiproliferative activity against human MGC803 cells at 8 uM after 72 hrs by CCK-8 assay relative to control; type: functional; conditions: MGC-803, 72 h
[6] = test system: HeLa; assay: Antiproliferative activity against human HeLa cells at 8 uM after 72 hrs by CCK-8 assay relative to control; type: functional
[7] = test system: A-375; assay: Antiproliferative activity against human A375 cells after 72 hrs by CCK-8 assay; type: functional, cell-based; conditions: A-375, 72 h
[8] = test system: MGC-803; assay: Antiproliferative activity against human MGC803 cells at 2 uM after 72 hrs by CCK-8 assay relative to control; type: functional; conditions: MGC-803, 72 h
[9] = test system: A-375; assay: Antiproliferative activity against human A375 cells at 8 uM after 72 hrs by CCK-8 assay relative to control; type: functional; conditions: A-375, 72 h
[10] = test system: HeLa; assay: Antiproliferative activity against human HeLa cells after 72 hrs by CCK-8 assay; type: functional, cell-based
[11] = test system: MGC-803; assay: Antiproliferative activity against human MGC803 cells after 72 hrs by CCK-8 assay; type: functional, cell-based; conditions: MGC-803, 72 h
[12] = test system: A-375; assay: Antiproliferative activity against human A375 cells at 2 uM after 72 hrs by CCK-8 assay relative to control; type: functional; conditions: A-375, 72 h
[13] = test system: SMMC-7721; assay: Induction of apoptosis in human SMMC7721 cells assessed as viable cells at 0.125 umol/L after 72 hrs by Alexa Fluor 488 Annexin/propidium iodide staining-based flow cytometric analysis (reference value: 97.14%); type: functional; conditions: SMMC-7721, 72 h, read-out: Activity
[14] = test system: SMMC-7721; assay: Induction of apoptosis in human SMMC7721 cells assessed as late apoptotic cells at 1 umol/L after 72 hrs by Alexa Fluor 488 Annexin/propidium iodide staining-based flow cytometric analysis (reference value: 0.29%); type: functional
[15] = test system: SMMC-7721; assay: Inhibition of colony formation in human SMMC7721 cells after 7 days by crystal violet staining-based assay; type: functional, cell-based
[16] = test system: SMMC-7721; assay: Induction of apoptosis in human SMMC7721 cells assessed as early apoptotic cells at 1 umol/L after 72 hrs by Alexa Fluor 488 Annexin/propidium iodide staining-based flow cytometric analysis (reference value: 0.09%); type: functional
[17] = test system: SMMC-7721; assay: Cell cycle arrest in human SMMC7721 cells assessed as accumulation of cells at G2/M phase at 0.125 umol/L after 72 hrs by propidium iodide staining-based flow cytometric analysis (reference value: 14.14%); type: functional
[18] = test system: SMMC-7721; assay: Cell cycle arrest in human SMMC7721 cells assessed as accumulation of cells at G0/G1 phase at 1 umol/L after 72 hrs by propidium iodide staining-based flow cytometric analysis (reference value: 80.65%); type: functional
[19] = test system: SMMC-7721; assay: Induction of apoptosis in human SMMC7721 cells assessed as early apoptotic cells at 4 umol/L after 72 hrs by Alexa Fluor 488 Annexin/propidium iodide staining-based flow cytometric analysis (reference value: 0.09%); type: functional
[20] = test system: SMMC-7721; assay: Induction of apoptosis in human SMMC7721 cells assessed as viable cells at 4 umol/L after 72 hrs by Alexa Fluor 488 Annexin/propidium iodide staining-based flow cytometric analysis (reference value: 97.14%); type: functional; conditions: SMMC-7721, 72 h, read-out: Activity
[21] = test system: SMMC-7721; assay: Cell cycle arrest in human SMMC7721 cells assessed as accumulation of cells at G0/G1 phase at 4 umol/L after 72 hrs by propidium iodide staining-based flow cytometric analysis (reference value: 80.65%); type: functional
[22] = test system: SMMC-7721; assay: Cell cycle arrest in human SMMC7721 cells assessed as accumulation of cells at G2/M phase at 4 umol/L after 72 hrs by propidium iodide staining-based flow cytometric analysis (reference value: 14.14%); type: functional
[23] = test system: SMMC-7721; assay: Induction of apoptosis in human SMMC7721 cells assessed as late apoptotic cells at 4 umol/L after 72 hrs by Alexa Fluor 488 Annexin/propidium iodide staining-based flow cytometric analysis (reference value: 0.29%); type: functional
[24] = test system: SMMC-7721; assay: Cell cycle arrest in human SMMC7721 cells assessed as accumulation of cells at S phase at 4 umol/L after 72 hrs by propidium iodide staining-based flow cytometric analysis (reference value: 5.21%); type: functional
[25] = test system: SMMC-7721; assay: Induction of apoptosis in human SMMC7721 cells assessed as necrotic cells at 0.125 umol/L after 72 hrs by Alexa Fluor 488 Annexin/propidium iodide staining-based flow cytometric analysis (reference value: 2.48%); type: functional
[26] = test system: SMMC-7721; assay: Cell cycle arrest in human SMMC7721 cells assessed as accumulation of cells at G2/M phase at 1 umol/L after 72 hrs by propidium iodide staining-based flow cytometric analysis (reference value: 14.14%); type: functional
[27] = test system: SMMC-7721; assay: Cell cycle arrest in human SMMC7721 cells assessed as accumulation of cells at S phase at 1 umol/L after 72 hrs by propidium iodide staining-based flow cytometric analysis (reference value: 5.21%); type: functional
[28] = test system: SMMC-7721; assay: Induction of apoptosis in human SMMC7721 cells assessed as late apoptotic cells at 0.125 umol/L after 72 hrs by Alexa Fluor 488 Annexin/propidium iodide staining-based flow cytometric analysis (reference value: 0.29%); type: functional
[29] = test system: SMMC-7721; assay: Induction of apoptosis in human SMMC7721 cells assessed as early apoptotic cells at 0.125 umol/L after 72 hrs by Alexa Fluor 488 Annexin/propidium iodide staining-based flow cytometric analysis (reference value: 0.09%); type: functional
[30] = test system: SMMC-7721; assay: Cell cycle arrest in human SMMC7721 cells assessed as accumulation of cells at S phase at 0.125 umol/L after 72 hrs by propidium iodide staining-based flow cytometric analysis (reference value: 5.21%); type: functional
[31] = biological target: Histone deacetylase 2 (Homo sapiens, UniProt Q92769); assay: Inhibition of human recombinant HDAC2 using Fluor de Lys-Green as substrate preincubated for 5 mins followed by substrate addition and measured after 1 hr by fluorescence assay
[32] = test system: SMMC-7721; assay: Induction of apoptosis in human SMMC7721 cells assessed as viable cells at 1 umol/L after 72 hrs by Alexa Fluor 488 Annexin/propidium iodide staining-based flow cytometric analysis (reference value: 97.14%); type: functional; conditions: SMMC-7721, 72 h, read-out: Activity
[33] = test system: SMMC-7721; assay: Induction of apoptosis in human SMMC7721 cells assessed as necrotic cells at 4 umol/L after 72 hrs by Alexa Fluor 488 Annexin/propidium iodide staining-based flow cytometric analysis (reference value: 2.48%); type: functional
[34] = test system: SMMC-7721; assay: Induction of apoptosis in human SMMC7721 cells assessed as necrotic cells at 1 umol/L after 72 hrs by Alexa Fluor 488 Annexin/propidium iodide staining-based flow cytometric analysis (reference value: 2.48%); type: functional
[35] = test system: SMMC-7721; assay: Cell cycle arrest in human SMMC7721 cells assessed as accumulation of cells at G0/G1 phase at 0.125 umol/L after 72 hrs by propidium iodide staining-based flow cytometric analysis (reference value: 80.65%); type: functional

Chain of Histone deacetylase 2 (Q92769 whole entry): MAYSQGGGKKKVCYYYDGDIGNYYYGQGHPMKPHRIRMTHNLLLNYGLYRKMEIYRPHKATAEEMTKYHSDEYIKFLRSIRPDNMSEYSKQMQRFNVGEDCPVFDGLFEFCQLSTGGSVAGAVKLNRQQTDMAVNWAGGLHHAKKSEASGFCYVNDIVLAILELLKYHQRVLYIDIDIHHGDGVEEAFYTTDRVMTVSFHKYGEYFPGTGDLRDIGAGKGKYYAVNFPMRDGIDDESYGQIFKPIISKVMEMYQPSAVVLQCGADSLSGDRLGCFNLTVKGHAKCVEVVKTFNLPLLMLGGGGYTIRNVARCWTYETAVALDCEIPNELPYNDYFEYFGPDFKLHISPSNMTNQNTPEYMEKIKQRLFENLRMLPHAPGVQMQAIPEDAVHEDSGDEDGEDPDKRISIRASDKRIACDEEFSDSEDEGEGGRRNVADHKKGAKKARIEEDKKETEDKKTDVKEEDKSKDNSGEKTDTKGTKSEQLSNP

IC50 [1]: 2.86 µM | IC50 [2]: 2.33 µM | IC50 [4]: 0.61 µM | IC50 [7]: 3.67 µM | IC50 [10]: 0.84 µM | IC50 [11]: 2.14 µM
Compound: Nc1ccccc1NC(=O)c1ccc(CSC(=S)N2CCN(c3ccccc3)CC2)cc1
inhibition at 2 µM [3]: 62.2% | inhibition at 8 µM [5]: 87.4% | inhibition at 8 µM [6]: 73.1% | inhibition at 2 µM [8]: 42.3% | inhibition at 8 µM [9]: 88.6% | inhibition at 2 µM [12]: 27.5%

IC50 [1]: > 26 µM | IC50 [4]: 16.3 µM | IC50 [7]: 7.67 µM | IC50 [31]: 0.37 µM | IC50 [10]: 11.8 µM
Compound: Nc1ccc(F)cc1NC(=O)c1ccc(CNC(=O)/C=C/c2cccnc2)cc1
viability at 0.125 µM [13]: 78.3% | Activity [14]: 10.22% | inhibition [15]: Active | Activity [16]: 4.59% | Activity [17]: 17.2% | Activity [18]: 76.07% | Activity [19]: 5.45% | viability at 4 µM [20]: 74.2% | Activity [21]: 76.41% | inhibition at 2 µM [3]: 14.7% | Activity [22]: 18.05% | Activity [23]: 17.32% | Activity [24]: 5.54% | Activity [25]: 4.08% | Activity [26]: 18.67% | Activity [27]: 5.26% | Activity [28]: 11.62% | inhibition at 8 µM [5]: 54.5% | Activity [29]: 6.02% | inhibition at 8 µM [6]: 41.4% | Activity [30]: 5.71% | inhibition at 2 µM [8]: 7.8% | inhibition at 8 µM [9]: 54.3% | viability at 1 µM [32]: 73.9% | Activity [33]: 3.06% | Activity [34]: 11.25% | inhibition at 2 µM [12]: 21.3%

IC50 [1]: 5.97 µM | IC50 [2]: 0.47 µM | IC50 [4]: 6.74 µM | IC50 [7]: 3.67 µM | IC50 [10]: 1.6 µM | IC50 [11]: 4.89 µM
Compound: Nc1ccccc1NC(=O)c1ccc(CNC(=O)OCc2cccnc2)cc1 [ENTINOSTAT]
viability at 0.125 µM [13]: 77.5% | Activity [14]: 9.64% | Activity [16]: 11.21% | Activity [17]: 17.36% | Activity [18]: 79.1% | Activity [19]: 20.06% | viability at 4 µM [20]: 57.3% | Activity [21]: 71.21% | inhibition at 2 µM [3]: 62.2% | Activity [22]: 21.24% | Activity [23]: 15.13% | Activity [24]: 7.55% | Activity [25]: 9.56% | Activity [26]: 15.55% | Activity [27]: 5.35% | Activity [28]: 8.41% | inhibition at 8 µM [5]: 67.2% | Activity [29]: 4.56% | inhibition at 8 µM [6]: 76.6% | Activity [30]: 4.54% | inhibition at 2 µM [8]: 25.3% | inhibition at 8 µM [9]: 88.7% | viability at 1 µM [32]: 73.9% | Activity [33]: 7.47% | Activity [34]: 5.22% | inhibition at 2 µM [12]: 30.2%

IC50 [1]: 1.88 µM | IC50 [2]: 3.21 µM | IC50 [4]: 3.28 µM | IC50 [7]: 5.28 µM | IC50 [11]: 1.89 µM
Compound: Nc1ccccc1NC(=O)c1ccc(CSC(=S)N2CCc3cc(Cl)ccc32)cc1
inhibition at 2 µM [3]: 40.1% | inhibition at 8 µM [5]: 82.2% | inhibition at 8 µM [6]: 65.1% | inhibition at 2 µM [8]: 57.7% | inhibition at 8 µM [9]: 82.3% | inhibition at 2 µM [12]: 31.9%

IC50 [1]: 3.04 µM | IC50 [2]: 2.7 µM | IC50 [4]: 2.9 µM | IC50 [7]: 4.05 µM | IC50 [10]: 3.45 µM | IC50 [11]: 2.3 µM
Compound: Nc1ccccc1NC(=O)c1ccc(CSC(=S)N2CCc3ccccc32)cc1
inhibition at 2 µM [3]: 38% | inhibition at 8 µM [5]: 87% | inhibition at 8 µM [6]: 67% | inhibition at 2 µM [8]: 44% | inhibition at 8 µM [9]: 85.4% | inhibition at 2 µM [12]: 25.7%

IC50 [1]: > 32 µM | IC50 [2]: 13.2 µM | IC50 [4]: 2.02 µM | IC50 [7]: 5.88 µM | IC50 [10]: 3.58 µM | IC50 [11]: 3.28 µM
Compound: COC(=O)c1ccc2c(c1)CCN2C(=S)SCc1ccc(C(=O)Nc2ccccc2N)cc1
inhibition at 2 µM [3]: 45.3% | inhibition at 8 µM [5]: 73.1% | inhibition at 8 µM [6]: 60.1% | inhibition at 2 µM [8]: 37.8% | inhibition at 8 µM [9]: 79.2% | inhibition at 2 µM [12]: 37.5%

IC50 [1]: 2.95 µM | IC50 [2]: 1.32 µM | IC50 [4]: 1.3 µM | IC50 [7]: 2.61 µM | IC50 [10]: 2.3 µM | IC50 [11]: 1.61 µM
Compound: CC1CCCCN1C(=S)SCc1ccc(C(=O)Nc2ccccc2N)cc1 (centres undefined)
inhibition at 2 µM [3]: 45.5% | inhibition at 8 µM [5]: 86.9% | inhibition at 8 µM [6]: 76.3% | inhibition at 2 µM [8]: 64.4% | inhibition at 8 µM [9]: 85.2% | Activity [35]: Dose-dependent effect | inhibition at 2 µM [12]: 42.5%
